In US10632125B2, “MTH1 inhibitors for treatment of inflammatory and autoimmune conditions” (THOMAS HELLEDAYS STIFTELSE FÖR MEDICINSK FORSKNING, priority 2014, dated 2020) one finds IC50 data, which are given here for 39 compounds.

One assay addresses MTH1 (Homo sapiens, UniProt P36639). The experiment in a line: MTH1 enzymatic assay (malachite green, coupled to pyrophosphatase). The assay is classed as biochemical.
Settings: not given
`[2H]C([2H])([2H])Nc1cc(-c2cccc(Cl)c2Cl)nc(N)n1` [Example 421, 6-(2,3-dichlorophenyl)-4-N-(^2H3)methylpyrimidine-2,4-diamine] yielded an IC50 below 200 nM.

Still in this assay, the particulars now being: dGTP 100 μM, MTH1 6 nM; 96- or 384-well format; read-out: IC50.
Turning to `Cc1cccc(-c2cc(NCCCNS(=O)(=O)c3ccc(Cl)cc3)nc(N)n2)c1C` [Example 357, N-(3-{[2-Amino-6-(2,3-dimethylphenyl)pyrimidin-4-yl]amino}propyl)-4-chlorobenzene-1-sulfonamide], the IC50 is below 200 nM.

Regarding `Cc1cccc(-c2cc(NCCCNC(=O)Nc3ccc(F)c(F)c3)nc(N)n2)c1C` [Example 362, 3-(3-{[2-Amino-6-(2,3-dimethylphenyl)pyrimidin-4-yl]amino}propyl)-1-(3,4-difluorophenyl)urea], the IC50 is below 200 nM.

Regarding `Cc1cc2cc(CNc3cc(-c4cccc(C)c4C)nc(N)n3)ccc2[nH]1` [Example 364, 6-(2,3-Dimethylphenyl)-4-N-[(2-methyl-1H-indol-5-yl)methyl]pyrimidine-2,4-diamine], the IC50 was below 200 nM.

Regarding `Cc1cccc(-c2cc(NCCCCNC(=O)OC(C)(C)C)nc(N)n2)c1C` [Example 370, tert-Butyl N-(4-{[2-amino-6-(2,3-dimethylphenyl)pyrimidin-4-yl]amino}butyl)-carbamate], the half-maximal inhibitory concentration (IC50) was below 200 nM.

`Cc1cccc(-c2cc(NCCCCCNC(=O)OC(C)(C)C)nc(N)n2)c1C` [Example 371, tert-Butyl N-(5-{[2-amino-6-(2,3-dimethylphenyl)pyrimidin-4-yl]amino}pentyl)-carbamate]: the IC50 was below 200 nM.

Regarding `Cc1cccc(-c2cc(NCCCNS(=O)(=O)c3ccc(S(C)(=O)=O)cc3)nc(N)n2)c1C` [Example 375, N-(3-{[2-Amino-6-(2,3-dimethylphenyl)pyrimidin-4-yl]amino}propyl)-4-methanesulfonylbenzene-1-sulfonamide], the concentration for half-maximal inhibition (IC50) is below 200 nM.

Turning to `CC(=O)Nc1ccc(S(=O)(=O)NCCCNc2cc(-c3cccc(C)c3C)nc(N)n2)cc1` [Example 382, N-{4-[(3-{[2-Amino-6-(2,3-dimethylphenyl)pyrimidin-4-yl]amino}propyl)sulfamoyl]-phenyl}acetamide], the IC50 was below 200 nM.

`COc1ccc(S(=O)(=O)NCCNc2cc(-c3cccc(C)c3C)nc(N)n2)cc1` [Example 385, N-(2-{[2-Amino-6-(2,3-dimethylphenyl)pyrimidin-4-yl]amino}ethyl)-4-methoxybenzene-1-sulfonamide]: the IC50 is below 200 nM.

In the case of `Cc1cccc(-c2cc(NCCCNS(=O)(=O)c3cc(Cl)c(Cl)s3)nc(N)n2)c1C` [Example 388, N-(3-{[2-Amino-6-(2,3-dimethylphenyl)pyrimidin-4-yl]amino}propyl)-4,5-dichlorothiophene-2-sulfonamide], the half-maximal inhibitory concentration (IC50) was below 200 nM.

In the case of `Cc1cccc(-c2cc(NCCNc3nc4ccccc4o3)nc(N)n2)c1C` [Example 393, 4-N-{2-[(1,3-Benzoxazol-2-yl)amino]ethyl}-6-(2,3-dimethylphenyl)pyrimidine-2,4-diamine], the concentration for half-maximal inhibition (IC50) is below 200 nM.

Consider `Cc1cccc(-c2cc(NC(C)CCc3ccccc3)nc(N)n2)c1C` (stereo not drawn) [Example 394, 6-(2,3-Dimethylphenyl)-4-N-(4-phenylbutan-2-yl)pyrimidine-2,4-diamine], for which the IC50 was below 200 nM.

For the compound `Cc1cccc(-c2cc(NCCNc3nc(Br)ns3)nc(N)n2)c1C` [Example 398, 4-N-{2-[(3-Bromo-1,2,4-thiadiazol-5-yl)amino]ethyl}-6-(2,3-dimethylphenyl)pyrimidine-2,4-diamine], the half-inhibitory concentration (IC50) is below 200 nM.

As to `Cc1cccc(-c2cc(NCCc3nnc(-c4ccc(F)cc4)o3)nc(N)n2)c1C` [Example 400, 6-(2,3-Dimethylphenyl)-4-N-{2-[5-(4-fluorophenyl)-1,3,4-oxadiazol-2-yl]ethyl}pyrimidine-2,4-diamine], the IC50 was below 200 nM.

For `Cc1cccc(-c2cc(NCCNS(=O)(=O)c3ccc(S(C)(=O)=O)cc3)nc(N)n2)c1C` [Example 401, N-(2-{[2-Amino-6-(2,3-dimethylphenyl)pyrimidin-4-yl]amino}ethyl)-4-methanesulfonylbenzene-1-sulfonamide], the IC50 was below 200 nM.

For the compound `Cc1nc(CCNc2cc(-c3cccc(Cl)c3C)nc(N)n2)n[nH]1` [Example 412, 6-(3-chloro-2-methylphenyl)-4-N-[2-(5-methyl-1H-1,2,4-triazol-3-yl)ethyl]pyrimidine-2,4-diamine], the IC50 is below 200 nM.

Take `Cc1c(Cl)cccc1-c1cc(NCCc2ccc(S(=O)(=O)N(C)C)cc2)nc(N)n1` [Example 414, 4-(2-{[2-amino-6-(3-chloro-2-methylphenyl)pyrimidin-4-yl]amino}ethyl)-N,N-dimethylbenzene-1-sulfonamide]: the half-maximal inhibitory concentration (IC50) was below 200 nM.

For the compound `Cc1cccc(-c2cc(NC3(Cc4ccc(Cl)cc4)CC3)nc(N)n2)c1C` [Example 417, 4-N-{1-[(4-Chlorophenyl)methyl]cyclopropyl}-6-(2,3-dimethylphenyl)pyrimidine-2,4-diamine], the half-maximal inhibitory concentration (IC50) was below 200 nM.

`Cc1c(F)ccc(-c2cc(NCCc3ccc(S(N)(=O)=O)cc3)nc(N)n2)c1C` [Example 425, 4-(2-{[2-amino-6-(4-fluoro-2,3-dimethylphenyl)pyrimidin-4-yl]amino}ethyl)benzene-1-sulfonamide]: the half-inhibitory concentration (IC50) was below 200 nM.

Turning to `Cc1ccc(Cl)cc1-c1cc(NCCc2ccc(S(N)(=O)=O)cc2)nc(N)n1` [Example 427, 4-(2-{[2-amino-6-(5-chloro-2-methylphenyl)pyrimidin-4-yl]amino}ethyl)benzene-1-sulfonamide], the half-maximal inhibitory concentration (IC50) was below 200 nM.

In the case of `Cc1c(-c2cc(NCCc3ccc(S(C)(=O)=O)cc3)nc(N)n2)ccc(Cl)c1Cl` [Example 431, 6-(3,4-dichloro-2-methylphenyl)-4-N-[2-(4-methanesulfonylphenyl)ethyl]pyrimidine-2,4-diamine], the IC50 is below 200 nM.

With `Nc1nc(NCCc2ccc(S(N)(=O)=O)cc2)cc(-c2ccc(F)cc2Cl)n1` [Example 433, 4-(2-{[2-amino-6-(2-chloro-4-fluorophenyl)pyrimidin-4-yl]amino}ethyl)benzene-1-sulfonamide], the IC50 was below 200 nM.

Take `Cc1cc(-c2cc(NCCc3ccc(S(N)(=O)=O)cc3)nc(N)n2)ccc1F` [Example 435, 4-(2-{[2-amino-6-(4-fluoro-3-methylphenyl)pyrimidin-4-yl]amino}ethyl)benzene-1-sulfonamide]: the IC50 was below 200 nM.

As to `Cc1c(C#N)cccc1-c1cc(NC2CC2)nc(N)n1` [Example 437, 3-[2-amino-6-(cyclopropylamino)pyrimidin-4-yl]-2-methylbenzonitrile], the IC50 is below 200 nM.

`C#CCNc1cc(-c2cccc(Cl)c2Cl)nc(N)n1` [Example 438, 6-(2,3-dichlorophenyl)-4-N-(prop-2-yn-1-yl)pyrimidine-2,4-diamine]: the IC50 was below 200 nM.

Regarding `Cc1cccc(-c2cc(NCCc3c(C)n[nH]c3C)nc(N)n2)c1C` [Example 440, 4-N-[2-(3,5-dimethyl-1H-pyrazol-4-yl)ethyl]-6-(2,3-dimethylphenyl)pyrimidine-2,4-diamine], the IC50 is below 200 nM.

For `Cc1cccc(-c2cc(NCCNc3ccc(Cl)nn3)nc(N)n2)c1C` [Example 441, 4-N-{2-[(6-chloropyridazin-3-yl)amino]ethyl}-6-(2,3-dimethylphenyl)pyrimidine-2,4-diamine], the half-maximal inhibitory concentration (IC50) is below 200 nM.

As to `Cc1cccc(-c2cc(NCCNc3cc(C#N)ccn3)nc(N)n2)c1C` [Example 442, 2-[(2-{[2-amino-6-(2,3-dimethylphenyl)pyrimidin-4-yl]amino}ethyl)amino]pyridine-4-carbonitrile], the IC50 was below 200 nM.

Consider `Cc1ccc(NCCNc2cc(-c3cccc(C)c3C)nc(N)n2)cc1F` [Example 448, 6-(2,3-dimethylphenyl)-4-N-{2-[(3-fluoro-4-methylphenyl)amino]ethyl}pyrimidine-2,4-diamine], for which the IC50 was below 200 nM.

Consider `Cc1cccc(-c2cc(NCCNc3ccc(Cl)c(Cl)c3)nc(N)n2)c1C` [Example 449, 4-N-{2-[(3,4-dichlorophenyl)amino]ethyl}-6-(2,3-dimethylphenyl)pyrimidine-2,4-diamine], for which the half-inhibitory concentration (IC50) is below 200 nM.

`Cc1cccc(-c2cc(NCCNc3ccc(Cl)cn3)nc(N)n2)c1C` [Example 450, 4-N-{2-[(5-chloropyridin-2-yl)amino]ethyl}-6-(2,3-dimethylphenyl)pyrimidine-2,4-diamine]: the 50% inhibitory concentration (IC50) was below 200 nM.

`Cc1cccc(-c2cc(NCCNc3ccc(S(N)(=O)=O)cc3)nc(N)n2)c1C` [Example 452, 4-[(2-{[2-amino-6-(2,3-dimethylphenyl)pyrimidin-4-yl]amino}ethyl)amino]benzene-1-sulfonamide]: the IC50 is below 200 nM.

Consider `Cc1c(Cl)cccc1-c1cc(NCCc2ccc(Cl)cc2)nc(N)n1` [Example 461, 6-(3-chloro-2-methylphenyl)-4-N-[2-(4-chlorophenyl)ethyl]pyrimidine-2,4-diamine], for which the 50% inhibitory concentration (IC50) was below 200 nM.

`CNc1cc(-c2ccsc2)nc(N)n1` [Example 463, 4-N-methyl-6-(thiophen-3-yl)pyrimidine-2,4-diamine]: the IC50 is below 200 nM.

For `CNc1cc(-c2cc(C)cs2)nc(N)n1` [Example 464, 4-N-methyl-6-(4-methylthiophen-2-yl)pyrimidine-2,4-diamine], the half-maximal inhibitory concentration (IC50) is below 200 nM.

As for `CNc1cc(-c2ccnn2C)nc(N)n1` [Example 465, 4-N-methyl-6-(1-methyl-1H-pyrazol-5-yl)pyrimidine-2,4-diamine], the half-maximal inhibitory concentration (IC50) is below 200 nM.

On to `Nc1nc(NCCNc2ccc(Br)cn2)cc(-c2cccc(Cl)c2Cl)n1` [Example 466, 4-N-{2-[(5-bromopyridin-2-yl)amino]ethyl}-6-(2,3-dichlorophenyl)pyrimidine-2,4-diamine], for which the IC50 was below 200 nM.

`CNc1cc(-c2cc[nH]c2)nc(N)n1` [Example 468, 4-N-methyl-6-(1H-pyrrol-3-yl)pyrimidine-2,4-diamine]: the half-maximal inhibitory concentration (IC50) is below 200 nM.

For the compound `COCC(=O)NCCCCNc1cc(-c2cccc(Cl)c2Cl)nc(N)n1` [Example 469, N-(4-{[2-amino-6-(2,3-dichlorophenyl)pyrimidin-4-yl]amino}butyl)-2-methoxyacetamide], the half-maximal inhibitory concentration (IC50) is below 200 nM.
